From patent US8513187B2, “Soft protease inhibitors, and pro-soft forms thereof” (priority 2009, dated 2013)

Assays:
DPP9 [1] = biological target: T1, DPP9 (Homo sapiens, UniProt Q86TI2); assay: In vitro DPP9 inhibition assay (IC50, GP-AMC substrate); assay type: biochemical; details: DPP IV versus DPP9
Protocol: (§1) FIG. 6 depicts a table outlining various in vitro and in vivo assay results for DPP inhibitors. CLogP values were calculated using ChemDraw Ultra version 11.0. […] All except PREP used the same substrate (GP-AMC), but different concentrations (10 μM for DPP IV, 25 μM for DPP8 and DPP9, and 50 μM for FAP).
(§2) The methods of biological testing used are described in International Patent Application PCT/US06/047853, published as WO/2007/100374, which claims priority to U.S. Provisional Patent Application No. 60/752,017. These methods are herein incorporated in their entirety by reference.
(§3) FIGS. 6-9 depict the results from various biological assays. The CLogP values in these figures were calculated using ChemDraw Ultra version 11.0.

DPP8 = DPP8 (Homo sapiens, UniProt Q6V1X1); assay: In vitro DPP8 inhibition assay (IC50, GP-AMC substrate); assay type: biochemical; details: DPP IV versus DPP8
Protocol: as §1, §2, §3

DPP9 [2] = biological target: T1, DPP9; assay: Intracellular IC50 (IC-IC50), intracellular potency against DPP9; assay type: cell-based; details: compounds preincubated at pH 2.0 for 4 h
From the text: It is important to note that IC-IC50 is not a measure of cell permeability. Like IC50, it is a composite of factors, including cell permeability, potency against DPP9, rate and equilibrium of the intramolecular cyclization reaction, and inhibitor stability, both intrinsic and intracellular.

DPP IV = DPP IV (Homo sapiens, UniProt P27487); assay: In vitro DPP IV inhibition assay (IC50, GP-AMC substrate); assay type: biochemical; details: potency ratio versus oxy-analog compound 11
Protocol: as §1, §2, §3

FAP = biological target: T2, FAP (Homo sapiens, UniProt Q12884); assay: In vitro FAP inhibition assay (GP-AMC substrate); assay type: biochemical
T2 sequence (Q12884 1-760): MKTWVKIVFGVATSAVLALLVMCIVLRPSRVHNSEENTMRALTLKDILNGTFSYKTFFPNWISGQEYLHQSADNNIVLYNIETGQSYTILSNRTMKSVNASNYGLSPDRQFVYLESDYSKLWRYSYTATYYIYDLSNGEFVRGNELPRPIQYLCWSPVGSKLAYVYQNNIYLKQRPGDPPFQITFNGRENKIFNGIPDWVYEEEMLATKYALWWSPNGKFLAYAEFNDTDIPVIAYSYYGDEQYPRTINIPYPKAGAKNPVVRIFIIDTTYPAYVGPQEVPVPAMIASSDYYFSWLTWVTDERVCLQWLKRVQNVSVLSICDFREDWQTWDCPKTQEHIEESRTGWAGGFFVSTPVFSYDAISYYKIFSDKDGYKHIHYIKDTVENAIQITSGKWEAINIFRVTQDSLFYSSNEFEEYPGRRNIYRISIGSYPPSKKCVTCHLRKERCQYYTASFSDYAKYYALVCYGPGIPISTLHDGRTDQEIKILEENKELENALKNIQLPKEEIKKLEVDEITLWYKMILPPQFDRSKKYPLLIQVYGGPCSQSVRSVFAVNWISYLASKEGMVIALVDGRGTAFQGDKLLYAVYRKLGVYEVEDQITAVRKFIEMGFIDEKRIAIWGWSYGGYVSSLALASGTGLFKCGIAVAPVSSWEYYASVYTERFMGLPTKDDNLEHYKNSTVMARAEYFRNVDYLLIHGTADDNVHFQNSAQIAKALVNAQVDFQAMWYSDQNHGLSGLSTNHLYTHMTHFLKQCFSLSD
Protocol: (§4) FIG. 6 depicts a table outlining various in vitro and in vivo assay results for DPP inhibitors. CLogP values were calculated using ChemDraw Ultra version 11.0. […] The methods of biological testing used are described in International Patent Application PCT/US06/047853, published as WO/2007/100374, which claims priority to U.S. […] These methods are herein incorporated in their entirety by reference. FIGS. 6-9 depict the results from various biological assays. The CLogP values in these figures were calculated using ChemDraw Ultra version 11.0.

PREP = biological target: T3, PREP (Homo sapiens, UniProt P48147); assay: In vitro PREP inhibition assay; assay type: biochemical
T3 sequence (P48147 1-710): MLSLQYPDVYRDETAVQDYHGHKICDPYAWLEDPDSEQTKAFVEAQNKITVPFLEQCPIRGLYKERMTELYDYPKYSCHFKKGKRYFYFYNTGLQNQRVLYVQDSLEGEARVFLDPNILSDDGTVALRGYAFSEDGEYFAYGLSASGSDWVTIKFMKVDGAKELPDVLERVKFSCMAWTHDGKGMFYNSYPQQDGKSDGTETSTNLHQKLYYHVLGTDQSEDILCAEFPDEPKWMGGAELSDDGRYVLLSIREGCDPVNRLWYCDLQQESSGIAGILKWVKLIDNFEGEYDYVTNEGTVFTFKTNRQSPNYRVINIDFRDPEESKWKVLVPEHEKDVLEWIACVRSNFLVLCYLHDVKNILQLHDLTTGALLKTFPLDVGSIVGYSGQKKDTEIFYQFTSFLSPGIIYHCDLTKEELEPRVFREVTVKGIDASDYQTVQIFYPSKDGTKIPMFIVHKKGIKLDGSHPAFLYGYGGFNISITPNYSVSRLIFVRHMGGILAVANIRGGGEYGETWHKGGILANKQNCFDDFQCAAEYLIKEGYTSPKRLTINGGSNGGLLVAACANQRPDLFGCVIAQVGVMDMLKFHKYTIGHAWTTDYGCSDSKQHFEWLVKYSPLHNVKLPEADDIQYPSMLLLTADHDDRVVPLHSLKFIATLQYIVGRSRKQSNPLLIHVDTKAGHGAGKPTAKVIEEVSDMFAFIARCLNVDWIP
Protocol: as §4

Sprague-Dawley (SD) rats = details: rat, in vivo, 300 mg/kg
Protocol: In an experiment, 13 male SD rats were given 300 mg/kg of compound 5.

T1 sequence (Q86TI2 whole entry, species assumed): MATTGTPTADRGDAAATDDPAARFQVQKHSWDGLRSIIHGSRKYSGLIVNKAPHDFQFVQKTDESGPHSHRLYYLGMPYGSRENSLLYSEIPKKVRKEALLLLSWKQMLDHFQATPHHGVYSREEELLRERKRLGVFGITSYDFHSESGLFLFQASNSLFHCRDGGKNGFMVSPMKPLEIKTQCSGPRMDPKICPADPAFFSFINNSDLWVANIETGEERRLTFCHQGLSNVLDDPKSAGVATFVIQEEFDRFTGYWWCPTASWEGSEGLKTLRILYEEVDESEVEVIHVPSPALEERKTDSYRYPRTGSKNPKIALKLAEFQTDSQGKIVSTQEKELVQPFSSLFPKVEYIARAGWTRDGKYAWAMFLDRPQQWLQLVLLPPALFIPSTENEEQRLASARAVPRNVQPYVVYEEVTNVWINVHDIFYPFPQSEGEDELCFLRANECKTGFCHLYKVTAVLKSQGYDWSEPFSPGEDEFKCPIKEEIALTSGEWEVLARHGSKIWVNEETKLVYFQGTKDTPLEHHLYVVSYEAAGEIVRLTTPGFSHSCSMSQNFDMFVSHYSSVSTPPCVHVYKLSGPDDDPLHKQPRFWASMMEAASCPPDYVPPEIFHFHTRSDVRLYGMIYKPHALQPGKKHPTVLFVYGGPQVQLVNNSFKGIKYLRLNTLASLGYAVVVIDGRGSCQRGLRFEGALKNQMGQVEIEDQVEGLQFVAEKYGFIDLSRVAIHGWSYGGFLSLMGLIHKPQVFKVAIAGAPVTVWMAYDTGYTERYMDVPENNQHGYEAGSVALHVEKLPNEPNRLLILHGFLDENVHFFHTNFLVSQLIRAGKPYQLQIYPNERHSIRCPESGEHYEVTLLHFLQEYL
DPP8, sequence (Q6V1X1 whole entry, species assumed): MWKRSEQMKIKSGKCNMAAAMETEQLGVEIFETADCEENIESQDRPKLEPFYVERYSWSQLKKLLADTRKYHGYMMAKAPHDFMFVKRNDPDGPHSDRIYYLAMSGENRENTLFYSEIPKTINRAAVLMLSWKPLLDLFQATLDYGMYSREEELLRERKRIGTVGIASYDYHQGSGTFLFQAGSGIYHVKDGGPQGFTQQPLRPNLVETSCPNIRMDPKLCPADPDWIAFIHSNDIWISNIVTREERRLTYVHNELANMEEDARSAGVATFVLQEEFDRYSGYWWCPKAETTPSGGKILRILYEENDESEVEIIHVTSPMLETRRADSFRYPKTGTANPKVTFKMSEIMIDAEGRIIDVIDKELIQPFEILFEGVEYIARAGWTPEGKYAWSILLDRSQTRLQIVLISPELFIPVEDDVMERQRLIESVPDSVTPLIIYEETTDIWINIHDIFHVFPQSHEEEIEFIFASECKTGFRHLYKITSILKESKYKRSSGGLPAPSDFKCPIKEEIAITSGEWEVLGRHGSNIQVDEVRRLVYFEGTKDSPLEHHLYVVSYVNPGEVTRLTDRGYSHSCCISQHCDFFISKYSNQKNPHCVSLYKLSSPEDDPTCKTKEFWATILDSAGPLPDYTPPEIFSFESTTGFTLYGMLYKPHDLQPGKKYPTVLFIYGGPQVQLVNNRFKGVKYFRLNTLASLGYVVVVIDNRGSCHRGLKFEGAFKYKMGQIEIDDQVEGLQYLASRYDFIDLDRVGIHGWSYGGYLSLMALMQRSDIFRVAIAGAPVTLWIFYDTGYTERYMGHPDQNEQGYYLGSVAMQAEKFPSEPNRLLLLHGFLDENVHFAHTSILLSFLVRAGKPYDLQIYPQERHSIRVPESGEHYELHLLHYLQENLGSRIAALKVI
DPP IV, sequence (P27487 whole entry, species assumed): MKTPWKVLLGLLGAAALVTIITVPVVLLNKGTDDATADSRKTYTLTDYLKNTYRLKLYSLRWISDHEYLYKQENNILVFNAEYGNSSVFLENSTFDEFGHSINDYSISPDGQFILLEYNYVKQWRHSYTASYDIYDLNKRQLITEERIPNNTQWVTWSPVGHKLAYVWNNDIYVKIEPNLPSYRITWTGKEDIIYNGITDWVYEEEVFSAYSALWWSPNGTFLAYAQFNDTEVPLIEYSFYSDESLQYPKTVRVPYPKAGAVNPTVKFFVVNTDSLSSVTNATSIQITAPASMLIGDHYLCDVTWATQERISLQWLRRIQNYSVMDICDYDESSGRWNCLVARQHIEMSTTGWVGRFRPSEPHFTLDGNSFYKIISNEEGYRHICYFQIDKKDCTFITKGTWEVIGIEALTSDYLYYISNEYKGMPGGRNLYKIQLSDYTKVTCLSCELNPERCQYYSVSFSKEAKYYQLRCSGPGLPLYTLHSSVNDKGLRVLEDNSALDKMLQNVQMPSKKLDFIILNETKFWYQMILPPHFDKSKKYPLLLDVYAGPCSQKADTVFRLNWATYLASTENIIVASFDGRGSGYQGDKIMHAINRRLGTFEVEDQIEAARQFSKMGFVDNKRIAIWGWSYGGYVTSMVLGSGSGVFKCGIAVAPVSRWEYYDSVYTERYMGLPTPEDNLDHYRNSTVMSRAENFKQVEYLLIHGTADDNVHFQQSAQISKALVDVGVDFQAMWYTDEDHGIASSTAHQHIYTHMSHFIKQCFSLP

Which “more potent for DPP IV than for DPP9 (selectivity)” value (DPP9 [1]) does the source give for `CN(CB(O)O)C(=S)[C@@H](N)CCC(=O)O.Cl` [Compound 5, Glu-boroSar[thioxo amide]hydrochloride] here?
Its value is 6,000 ×.

And the “more potent for DPP IV than for DPP8 (selectivity)” value (DPP8)?
Its value is 13,000 ×.

And the IC50 (DPP9 [2])?
Its IC50 is 828 µM.

What about the “more potent inhibitor of DPP IV than compound 11” value (DPP IV) of the same compound?
Its value is “about 66 fold”.

What about the “selectivity against FAP in vitro” value (FAP) of the same compound?
Its value is “good selectivity”.

What about the “selectivity against PREP in vitro” value (PREP) of the same compound?
The value was “good selectivity”.

And the “signs of toxicity after 24 h” value (Sprague-Dawley (SD) rats)?
Its value is “no sign of toxicity”.
